Values of other authors in patent publication US7271274B2, “Phenolic antioxidants for the treatment of disorders including arthritis, asthma and coronary artery disease” (AhteroGenics, Inc., priority 2004, dated 2007).

Conditions: clinical trials; cited from earlier work

## CC(C)(Sc1cc(C(C)(C)C)c(O)c(C(C)(C)C)c1)Sc1cc(C(C)(C)C)c(OC(=O)CCC(=O)O)c(C(C)(C)C)c1 [AGI-1067]
  QTc prolongation: did not cause QTc prolongation
